Assay results published in patent publication US11161856B2 (H. Lundbeck A/S, priority 2017, dated 2021).

What was measured:
Assay type in all cases: biochemical
ABHD6 = target: T1, ABHD6 (Mus musculus, UniProt Q8R2Y0); assay: In vitro competitive activity-based protein profiling, mouse brain proteome (ABHD6); details: mouse brain proteome; concentration not given (μM)
T1 construct: Brain; from tissue; host or cells: mouse brain proteome
T1 sequence (Q8R2Y0 1-336): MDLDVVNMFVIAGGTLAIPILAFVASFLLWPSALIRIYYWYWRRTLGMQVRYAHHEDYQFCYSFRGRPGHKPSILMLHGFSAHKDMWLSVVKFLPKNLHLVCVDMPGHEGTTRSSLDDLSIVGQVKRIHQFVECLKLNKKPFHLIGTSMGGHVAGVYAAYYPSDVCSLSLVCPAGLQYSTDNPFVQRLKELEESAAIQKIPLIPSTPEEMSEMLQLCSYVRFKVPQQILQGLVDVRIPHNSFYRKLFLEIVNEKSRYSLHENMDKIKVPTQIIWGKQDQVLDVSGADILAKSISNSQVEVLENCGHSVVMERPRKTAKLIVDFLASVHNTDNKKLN
Protocol: [The source words this procedure for another target and reports this target under the same test.] In Vitro Competitive Activity-Based Protein Profiling.
Proteomes (human prefrontal cortex or cell membrane fractions) (50 μL, 1.0 mg/mL total protein concentration) were preincubated with varying concentrations of inhibitors at 37° C. After 30 min, FP-Rh or HT-01 (1.0 μL, 50 μM in DMSO) was added and the mixture was incubated for another 30 min at room temperature. Reactions were quenched with SDS loading buffer (15 μL-4×) and run on SDS-PAGE.

MGLL = target: T2, MGLL (Mus musculus, UniProt O35678); assay: In vitro competitive activity-based protein profiling, mouse brain proteome (MGLL); design: IC50 MGLL Brain (Mouse, μM): scale not given here; details: for % Inh MGLL Brain (Mouse, μM): concentration not given (μM)
T2 construct: Brain; from tissue; host or cells: mouse brain proteome
T2 sequence (O35678 1-303): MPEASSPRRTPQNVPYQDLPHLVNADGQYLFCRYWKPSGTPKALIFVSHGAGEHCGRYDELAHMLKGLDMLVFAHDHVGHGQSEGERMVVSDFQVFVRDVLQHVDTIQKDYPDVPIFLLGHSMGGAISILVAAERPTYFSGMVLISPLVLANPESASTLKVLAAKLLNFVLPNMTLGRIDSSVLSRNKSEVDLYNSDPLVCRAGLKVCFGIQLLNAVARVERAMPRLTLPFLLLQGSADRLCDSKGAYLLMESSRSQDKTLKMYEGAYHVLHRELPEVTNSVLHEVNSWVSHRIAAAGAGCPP

MAGL = target: T3, MAGL (Homo sapiens, UniProt Q99685); assay: In vitro competitive activity-based protein profiling (FP-Rh or HT-01 probe, gel-based); design: IC50 MGLL PC3 (Human, μM) / IC50 MGLL PFC (Human, μM): scale not given here; details: for % Inh MGLL PFC (Human, μM) / % Inh MGLL PC3 (Human, μM): concentration not given (μM)
T3 construct: Proteomes (human prefrontal cortex or cell membrane fractions); from tissue
T3 sequence (Q99685 1-303): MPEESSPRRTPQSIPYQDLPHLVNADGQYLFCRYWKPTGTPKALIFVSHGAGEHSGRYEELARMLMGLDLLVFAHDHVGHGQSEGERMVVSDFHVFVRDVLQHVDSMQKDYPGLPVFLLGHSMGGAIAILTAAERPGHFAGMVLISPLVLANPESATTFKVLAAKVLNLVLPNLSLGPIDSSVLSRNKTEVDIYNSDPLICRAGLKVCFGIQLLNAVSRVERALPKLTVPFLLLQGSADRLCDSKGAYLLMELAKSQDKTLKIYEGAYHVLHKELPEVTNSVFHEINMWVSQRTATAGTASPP
Summary of the method: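 Human prefrontal cortex or cell membrane proteomes (1.0 mg/mL total protein) were preincubated with varying inhibitor concentrations for 30 min at 37° C. FP-Rh or HT-01 probe (50 μM DMSO stock) was then added for 30 min at room temperature, and samples were quenched in SDS loading buffer and resolved by SDS-PAGE.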

[1] = prefrontal cortex (PFC) proteome

Row | Compound | % Inh ABHD6 Brain (Mouse, μM) (ABHD6) | % Inh MGLL Brain (Mouse, μM) (MGLL) | % Inh MGLL PFC (Human, μM) (MAGL; [1]) | % Inh MGLL PC3 (Human, μM) (MAGL; PC3 cell proteome) | IC50 MGLL Brain (Mouse, μM) (MGLL) | IC50 MGLL PC3 (Human, μM) (MAGL; PC3 cell proteome) | IC50 MGLL PFC (Human, μM) (MAGL; [1])
1 | O=C(O)CN1CC2CC1CN2c1cc(CN2CCC3(CCN(C(=O)OC(C(F)(F)F)C(F)(F)F)CC3)C2)cc(C(F)(F)F)c1 (stereo not drawn) [Example 125, 2-(5-{3-[(8-{[(1,1,1,3,3,3-Hexafluoropropan-2-yl)oxy]carbonvl}-2,8-diazaspiro[4.5]decan-2-yl)methyl]-5-(trifluoromethyl)phenyl}-2,5-diazabicyclo[2.2.1]heptan-2-yl)acetic acid] | ### (### is ≥75%) | ### (### is ≥75%) | ### (### is ≥75%) |  |  |  | 
2 | CC(C)(C#Cc1ccccc1CN1CCCC12CCN(C(=O)OC(C(F)(F)F)C(F)(F)F)CC2)C(=O)O [Example 145, 4-{2-[(8-{[(1,1,1,3,3,3-Hexafluoropropan-2-yl)oxy]carbonyl}-1,8-diazaspiro[4.5]decan-1-yl)methyl]phenyl}-2,2-dimethylbut-3-ynoic acid] | # (# is ≤25%) | ### (### is ≥75%) |  | ### (### is ≥75%) |  |  | 
3 | O=C(O)C1CCN(Cc2cc(CN3CCC4(CC3)CCN(C(=O)OC(C(F)(F)F)C(F)(F)F)C4)cc(C(F)(F)F)c2)CC1 [Example 223, l-(3-((2-(((1,1,1,3,3,3-Hexafluoropropan-2-yl)oxy)carbonyl)-2,8-diazaspiro[4.5]decan-8-yl)methyl)-5-(trifluoromethyl)benzyl) piperidine-4-carboxylic acid] | # (# is ≤25%) | # (# is ≤25%) | ## (## is between 25 and 75%) |  |  |  | 
4 | CC(C)(C#Cc1c(F)cccc1CN1CCCC12CCN(C(=O)OC(C(F)(F)F)C(F)(F)F)CC2)C(=O)O [Example 147, 4-{2-Fluoro-6-[(8-{[(1,1,1,3,3,3-hexafluoropropan-2-yl)oxy]carbonyl}-1,8-diazaspiro[4.5]decan-1-yl)methyl]phenyl}-2,2-dimethylbut-3-ynoic acid] | # (# is ≤25%) | ### (### is ≥75%) |  | ### (### is ≥75%) |  |  | 
5 | O=C(OC(C(F)(F)F)C(F)(F)F)N1CC2(CCN(Cc3ccc(C(F)(F)F)cc3N3CCCC3)CC2)C1 [Example 150, 1,1,1,3,3,3-Hexafluoropropan-2-yl 7-(2-(pyrrolidin-1-yl)-4-(trifluoromethyl)benzyl)-2,7-diazaspiro[3.5]nonane-2-carboxylate] | ### (### is ≥75%) | # (# is ≤25%) | ## (## is between 25 and 75%) |  |  |  | 
6 | O=C(O)C1CCN(c2ccc(CN3CCC4(CC3)CCN(C(=O)OC(C(F)(F)F)C(F)(F)F)C4)cc2C(F)(F)F)CC1 [Example 219, l-(4-((2-(((1,1,1,3,3,3-Hexafluoropropan-2-yl)oxy)carbonyl)-2,8-diazaspiro[4.5]decan-8-yl)methyl)-2-(trifluoromethyl)phenyl) piperidine-4-carboxylic acid] | ### (### is ≥75%) | ## (## is between 25 and 75%) | ### (### is ≥75%) |  |  |  | 
7 | O=C(O)CN1CC2CC1CN2c1cc(C(F)(F)F)ccc1CN1CCCC12CCN(C(=O)OC(C(F)(F)F)C(F)(F)F)CC2 (stereo not drawn) [Example 126, 2-(5-{2-[(8-{[(1,1,1,3,3,3-Hexafluoropropan-2-yl)oxy]carbonyl}-1,8-diazaspiro[4.5]decan-1-yl)methyl]-5-(trifluoromethyl)phenyl}-2,5-diazabicyclo[2.2.1]heptan-2-yl)acetic acid] | # (# is ≤25%) | ### (### is ≥75%) | ### (### is ≥75%) |  |  |  | 
8 | O=C(OC(C(F)(F)F)C(F)(F)F)N1CCC2(CC1)CCN(C(=O)c1ccc(C(F)(F)F)cc1Cl)C2 [Example 119, 1,1,1,3,3,3-Hexafluoropropan-2-yl 2-(2-chloro-4-(trifluoromethyl)benzoyl)-2,8-diazaspiro[4.5]decane-8-carboxylate] | ### (### is ≥75%) | ### (### is ≥75%) | ### (### is ≥75%) |  |  |  | 
9 | O=C(OC(C(F)(F)F)C(F)(F)F)N1CCC2(CC1)CCN(C(=O)c1ccc(C(F)(F)F)c(Cl)c1)C2 [Example 109, 1,1,1,3,3,3-Hexafluoropropan-2-yl 2-(3-chloro-4-(trifluoromethyl)benzoyl)-2,8-diazaspiro[4.5]decane-8-carboxylate] | ### (### is ≥75%) | ### (### is ≥75%) | ### (### is ≥75%) |  |  |  | 

Further lines, results first:

Row | % Inh ABHD6 Brain (Mouse, μM) (ABHD6) | % Inh MGLL Brain (Mouse, μM) (MGLL) | % Inh MGLL PFC (Human, μM) (MAGL; [1]) | % Inh MGLL PC3 (Human, μM) (MAGL; PC3 cell proteome) | IC50 MGLL Brain (Mouse, μM) (MGLL) | IC50 MGLL PC3 (Human, μM) (MAGL; PC3 cell proteome) | IC50 MGLL PFC (Human, μM) (MAGL; [1]) | Compound
10 | ## (## is between 25 and 75%) | ### (### is ≥75%) | ### (### is ≥75%) |  |  |  |  | CN(Cc1ccc(C(F)(F)F)cc1N1CCOC(C(=O)O)C1)C1(C)CCN(C(=O)OC(C(F)(F)F)C(F)(F)F)CC1 (stereo not drawn) [Example 108, 4-(2-(((1-(((1,1,1,3,3,3-Hexafluoropropan-2-yl)oxy)carbonyl)-4-methylpiperidin-4-yl)(methyl)amino)methyl)-5-(trifluoromethyl)phenyl) morpholine-2-carboxylic acid]
11 | ### (### is ≥75%) | ### (### is ≥75%) |  | ### (### is ≥75%) |  |  |  | CN(Cc1cc(C(F)(F)F)cc(C2(C(=O)O)CCCC2)c1)C1(C)CCN(C(=O)OC(C(F)(F)F)C(F)(F)F)CC1 [Example 138, l-(3-{[(1-{[(1,1,1,3,3,3-Hexafluoropropan-2-yl)oxy]carbonyl}-4-methylpiperidin-4-yl)(methyl)ainino]methyl}-5-(trifluoromethyl)phenyl)cyclop entane-1-carboxylic acid]
12 | ## (## is between 25 and 75%) | ### (### is ≥75%) | ### (### is ≥75%) |  |  |  |  | CN(Cc1cc(N2CCOC(C)(C(=O)O)C2)cc(C(F)(F)F)c1)C1(C)CCN(C(=O)OC(C(F)(F)F)C(F)(F)F)CC1 (stereo not drawn) [Example 139, 4-(3-(((1-(((1,1,1,3,3,3-Hexafluoropropan-2-yl)oxy)carbonyl)-4-methylpiperidin-4-yl)(methyl)amino)methyl)-5-(trifluoromethyl)phenyl)-2-methylmorpholine-2-carboxylic acid]
13 | ## (## is between 25 and 75%) | ### (### is ≥75%) | ### (### is ≥75%) |  | * * * | * * * | * * * | O=C(O)C1CN(c2cc(C(F)(F)F)ccc2CN2CC3(CCN(C(=O)OC(C(F)(F)F)C(F)(F)F)CC3)C2)CCO1 (stereo not drawn) [Example 20, 4-(2-((7-(((1,1,1,3,3,3-Hexafluoropropan-2-yl)oxy)carbonyl)-2,7-diazaspiro[3.5]nonan-2-yl)methyl)-5-(trifluoromethyl)phenyl)morpholine-2-carboxylic acid]
14 | ### (### is ≥75%) | ### (### is ≥75%) | ### (### is ≥75%) |  |  |  |  | O=C(O)C1CCN(c2cc(C(F)(F)F)ccc2CN2CC3(CCN(C(=O)OC(C(F)(F)F)C(F)(F)F)CC3)C2)CC1 [Example 102, l-(2-((7-(((U,l,3,3,3-Hexafluoropropan-2-yl)oxy)carbonyl)-2,7-diazaspiro[3.5]nonan-2-yl)methyl)-5-(trifluoromethyl)phenyl)piperi-dine-4-carboxylic acid]
15 | # (# is ≤25%) | ## (## is between 25 and 75%) | # (# is ≤25%) |  |  |  |  | O=C(O)C1COCCN1c1cc(C(F)(F)F)ccc1CN1CC2(CCN(C(=O)OC(C(F)(F)F)C(F)(F)F)CC2)C1 (stereo not drawn) [Example 113, 4-(2-((7-(((1,1,1,3,3,3-Hexafluoropropan-2-yl)oxy)carbonyl)-2,7-diazaspiro[3.5]nonan-2-yl)methyl)-5-(trifluoromethyl)phenyl)moiph oline-3-carboxylic acid]
